Assay results: PubChem BioAssay AID2060495 (Molecular Pharmacology Branch, DTP, NCI, 2025)
Several values for one entry are separate records, joined by “and”; a condition that tells them apart may be missing. Identical values can stand only once.

Test system: 521955-158-R2-J5-PDC complex spheroid viability
Test: Anticancer human tumor 521955-158-R2-J5-PDC patient-derived pancreatic carcinoma cell line growth inhibition [GQUAD]
Conditions: for viability, T/C: stronger effect = lower value
Description: DNA G-quadruplex Stabilizer Agents in Combinations in Complex Spheroids
A high-throughput screen of multi-cell type tumor spheroids was designed to identify active combinations of DNA G-quadruplex stabilizer agents and targeted small molecules. Complex spheroids include a stromal component modeled by human endothelial cells (HUVEC) and fibroblasts modeled by human mesenchymal stem cells (MSCs). The concentration ranges selected for each drug and investigational agent were based upon clinically achievable concentrations if the clinical Cmax of the agent was known.
Compounds. The drugs and investigational agents: pidnarulex (CX-5461; NSC782164), APTO-253 (NSC789042), BRACO-19 (NSC847499), peposertib (NSC802822), ceralasertib (NSC780249), elimusertib (NSC800525), camonsertib (NSC841442), AZD-1390 (NSC803789), olaparib (NSC753686), talazoparib (NSC767125), ART-558 (NSC835418), sotorasib (NSC818433), MRTX-1133 (NSC836407), SN-38 (NSC673596), topotecan (NSC609699), etoposide (NSC141540), doxorubicin (NSC123127), gemcitabine (NSC613327), 5-fluorouracil (NSC19893), paclitaxel (NSC125973), vemurafenib (NSC761431), panobinostat (NSC761190), R-306465 (JNJ-16241199; NSC773264), adavosertib (NSC754352), TP-3654 (NSC805149), carboplatin (NSC241240), KSQ-4279 (NSC840948), and staurosporine (NSC755774) were obtained from the National Cancer Institute (NCI) Developmental Therapeutics Program Chemical Repository (34). The FDA-approved anticancer drug set is available from the NCI Developmental Therapeutics Program. […] The stock solutions were prepared in dimethyl sulfoxide (DMSO, Sigma-Aldrich, St. Louis, MO, cat. D2650) at 800-fold the tested concentration and stored at -70 degrees C prior to their use. All drugs and investigational agents were tested over a range starting from a high concentration at or near the clinical Cmax and decreasing in half-log increments. If the clinical Cmax for an agent had not been determined, the highest concentration tested was 10 microM.
2.3 Cell Culture. All cells were maintained in an incubator at 37 degrees C and 5% CO2 with 95% humidity. The PDC lines were cultured according to standard operating procedures established by the NCI PDMR. All PDCs were thawed and cultured in Matrigel-coated flasks prepared with a working solution of 1X Ham's F-12 nutrient mix, without supplementation (Invitrogen, cat. 11765054), 100 U/mL penicillin-streptomycin (Invitrogen, cat. 15140122), and 2.5% Matrigel (Corning Inc., cat. 354248) for the first three passages. The 857933-349-R-J2-PDC line was cultured in 6C/Colon 1B media, which includes advanced DMEM/F-12 (Thermo Fisher Scientific, cat. 12634028), 10 mM HEPES (Thermo Fisher Scientific, cat. 15630080), 1X GlutaMAX supplement (Thermo Fisher Scientific, cat. 35050061), 0.1 mg/mL primocin (InvivoGen, cat. ant-pm-2), 10% defined fetal bovine serum, heat inactivated (HyClone Laboratories Inc., cat. SH30070.03HI), 50% L-WRN conditioned media (ATCC, cat. CRL-3276), 1.25 mM N-Acetyl-L-cysteine (Sigma-Aldrich, cat. A9165), 10 mM nicotinamide (Sigma-Aldrich, cat. N0636), 1X B-27 supplement (Thermo Fisher Scientific, cat. 17504044), 1X N-2 supplement (Thermo Fisher Scientific, cat. 17502048), 10 microM Y-27632 dihydrochloride (Tocris Bioscience, cat. 1254), and 50 ng/mL human EGF recombinant protein (Thermo Fisher Scientific, cat. PHG0311). The 485176-168-R4-J1-PDC line was cultured in Panc media, which includes all 6C/Colon 1B media components plus 100 ng/mL human FGF-10 (Thermo Fisher Scientific, cat. 100-26), 500 nM SB-431542 (Selleckchem, cat. S1067), and gastrin (Tocris, cat. 3006).
[…]

[1] = curve of first compound, second compound 0.0316 µM
[2] = curve of first compound, second compound 0.1 µM
[3] = curve of first compound, second compound 0.316 µM
[4] = curve of first compound, second compound 1 µM
[5] = curve of first compound, second compound 3.16 µM
[6] = curve of first compound, second compound 10 µM
[7] = second compound 0.0316 µM, first compound 0.0316 µM
[8] = second compound 0.0316 µM, first compound 0.1 µM
[9] = second compound 0.0316 µM, first compound 0.316 µM
[10] = second compound 0.0316 µM, first compound 1 µM
[11] = second compound 0.0316 µM, first compound 3.16 µM
[12] = second compound 0.0316 µM, first compound 10 µM
[13] = second compound 0.1 µM, first compound 0.0316 µM
[14] = second compound 0.1 µM, first compound 0.1 µM
[15] = second compound 0.1 µM, first compound 0.316 µM
[16] = second compound 0.1 µM, first compound 1 µM
[17] = second compound 0.1 µM, first compound 3.16 µM
[18] = second compound 0.1 µM, first compound 10 µM
[19] = second compound 0.316 µM, first compound 0.0316 µM
[20] = second compound 0.316 µM, first compound 0.1 µM
[21] = second compound 0.316 µM, first compound 0.316 µM
[22] = second compound 0.316 µM, first compound 1 µM
[23] = second compound 0.316 µM, first compound 3.16 µM
[24] = second compound 0.316 µM, first compound 10 µM
[25] = second compound 1 µM, first compound 0.0316 µM
[26] = second compound 1 µM, first compound 0.1 µM
[27] = second compound 1 µM, first compound 0.316 µM
[28] = second compound 1 µM, first compound 1 µM
[29] = second compound 1 µM, first compound 3.16 µM
[30] = second compound 1 µM, first compound 10 µM
[31] = second compound 3.16 µM, first compound 0.0316 µM
[32] = second compound 3.16 µM, first compound 0.1 µM
[33] = second compound 3.16 µM, first compound 0.316 µM
[34] = second compound 3.16 µM, first compound 1 µM
[35] = second compound 3.16 µM, first compound 3.16 µM
[36] = second compound 3.16 µM, first compound 10 µM
[37] = second compound 10 µM, first compound 0.0316 µM
[38] = second compound 10 µM, first compound 0.1 µM
[39] = second compound 10 µM, first compound 0.316 µM
[40] = second compound 10 µM, first compound 1 µM
[41] = second compound 10 µM, first compound 3.16 µM
[42] = second compound 10 µM, first compound 10 µM
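Also: spheroids exposed to agents for one week before reading.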
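For viability, T/C in this document: 100% = DMSO vehicle control viability.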

With CC1COCCN1c1cc(-c2ccnn2C)c2ccnc(-c3ccn[nH]3)c2n1 (stereo unspecified) + CN(C)c1ccc(Nc2c3ccc(NC(=O)CCN4CCCC4)cc3nc3cc(NC(=O)CCN4CCCC4)ccc23)cc1 the IC50 [1] was 66.1 nM, the IC50 [2] was 54.6 nM and the IC50 [3] was 55.7 nM. The IC50 [4] was 52.7 nM, the IC50 [5] was 52.6 nM and the IC50 [6] was 32.6 nM. It also gave a viability, T/C [7] of 86.1%, a viability, T/C [8] of 30.1% and a viability, T/C [9] of 19.8%. For the same compound, the viability, T/C [10] was 20.6%, the viability, T/C [11] was 26.6% and the viability, T/C [12] was 33.5%. It also gave a viability, T/C [13] of 66.2%, a viability, T/C [14] of 33.7% and a viability, T/C [15] of 21.2%. It also gave a viability, T/C [16] of 20.9%, a viability, T/C [17] of 26.8% and a viability, T/C [18] of 40.1%. The viability, T/C [19] was 69.6%, the viability, T/C [20] was 31.2% and the viability, T/C [21] was 15.5%. For the same compound, the viability, T/C [22] was 19.8%, the viability, T/C [23] was 31.2% and the viability, T/C [24] was 39.2%. It also gave a viability, T/C [25] of 66.5%, a viability, T/C [26] of 31.1% and a viability, T/C [27] of 16%. For the same compound, the viability, T/C [28] was 18.4%, the viability, T/C [29] was 34.4% and the viability, T/C [30] was 30.2%. The viability, T/C [31] was 68%, the viability, T/C [32] was 28.4% and the viability, T/C [33] was 17.4%. For the same compound, the viability, T/C [34] was 17.5%, the viability, T/C [35] was 25.1% and the viability, T/C [36] was 33.6%. For the same compound, the viability, T/C [37] was 50.1%, the viability, T/C [38] was 36% and the viability, T/C [39] was 21.6%. For the same compound, the viability, T/C [40] was 23.8%, the viability, T/C [41] was 23.2% and the viability, T/C [42] was 26.6%.

COc1ncnc(C2CC2)c1-c1ncc2cnn(Cc3ccc(-c4nc(C(F)(F)F)cn4C(C)C)cc3)c2n1 + Cc1cnc(CNC(=O)c2c(=O)c3ccc(N4CCCN(C)CC4)nc3n3c2sc2ccccc23)cn1 showed an IC50 [1] of over 10000 nM, an IC50 [2] of over 10000 nM and an IC50 [3] of under 31.6 nM. It also gave an IC50 [4] of under 31.6 nM, an IC50 [5] of under 31.6 nM and an IC50 [6] of under 31.6 nM. The viability, T/C [7] was 92.4%, the viability, T/C [8] was 73.3% and the viability, T/C [9] was 96.7%. The viability, T/C [10] was 71.9%, the viability, T/C [11] was 94.3% and the viability, T/C [12] was 85.5%. The viability, T/C [13] was 58%, the viability, T/C [14] was 58.6% and the viability, T/C [15] was 53.1%. For the same compound, the viability, T/C [16] was 55.9%, the viability, T/C [17] was 57.2% and the viability, T/C [18] was 55.2%. For the same compound, the viability, T/C [19] was 30.3%, the viability, T/C [20] was 31.6% and the viability, T/C [21] was 31.4%. The viability, T/C [22] was 31.5%, the viability, T/C [23] was 28.1% and the viability, T/C [24] was 25.6%. The viability, T/C [25] was 19.3%, the viability, T/C [26] was 17.7% and the viability, T/C [27] was 17%. The viability, T/C [28] was 17.4%, the viability, T/C [29] was 18.8% and the viability, T/C [30] was 16.6%. It also gave a viability, T/C [31] of 14.5%, a viability, T/C [32] of 14.3% and a viability, T/C [33] of 16.4%. For the same compound, the viability, T/C [34] was 13.2%, the viability, T/C [35] was 13.7% and the viability, T/C [36] was 12.8%. The viability, T/C [37] was 13%, the viability, T/C [38] was 11.2% and the viability, T/C [39] was 9.95%. It also gave a viability, T/C [40] of 13.9%, a viability, T/C [41] of 6.73% and a viability, T/C [42] of 6.37%.

In the case of CC1COCCN1c1cc(C2(O)CC3CCC(C2)O3)c2cnn(-c3ccn[nH]3)c2n1 (stereo unspecified), the viability, T/C (compound 0.0316 µM) is reported as 32.7% and 40.2% and 58%, the viability, T/C (compound 0.1 µM) is reported as 11% and 10.8% and 17.1% and the viability, T/C (compound 0.316 µM) is reported as 11.7% and 12.3% and 23.7%. For the same compound, the viability, T/C (compound 1 µM) was 15.8% and 17.1% and 31.5%, the viability, T/C (compound 3.16 µM) was 19.6% and 19% and 32.1% and the viability, T/C (compound 10 µM) was 6.3% and 8.53% and 21.2%. For the same compound, the IC50 (curve of compound) was < 31.6 nM and 41.8 nM.
